Source: patent EP4603105A1, “PHARMACEUTICAL COMPOSITION CONTAINING CYCLIC COMPOUND HAVING SELECTIVE KRAS INHIBITORY EFFECT AGAINST HRAS AND NRAS” (CHUGAI SEIYAKU KABUSHIKI KAISHA, priority 2022, dated 2024)
Where a SMILES comes first, the peptide text is derived from it. Bridges are numbered along the chain shown (N, C = ends). [ ]: non-standard residue; d: D form. The star is where a group is joined. hPhe(3-Cl-4-CF3) = N[C@@H](CCc1ccc(C(F)(F)F)c(Cl)c1)C(=O)O; NPrPhe(4-CF3) = CCCN[C@@H](Cc1ccc(C(F)(F)F)cc1)C(=O)O; NMePhe(4-Me) = CN[C@@H](Cc1ccc(C)cc1)C(=O)O; NMeGly(cPent) = CN[C@H](C(=O)O)C1CCCC1; NMeD = CN[C@@H](CC(=O)O)C(=O)O; NMeL = CN[C@@H](CC(C)C)C(=O)O; Morpholide = C1CN(*)CCO1; NMeA = CN[C@@H](C)C(=O)O; Ac5c = NC1(C(=O)O)CCCC1; Aze = O=C(O)[C@@H]1CCN1; Ac3c = NC1(C(=O)O)CC1; X11 = CC1(C)CCN(*)C1; Sar = CNCC(=O)O

Columns and labels:
[1] = target: GDP-bound NRAS wild-type protein (Homo sapiens, UniProt P01111); assay: Binding to NRAS by surface plasmon resonance (SPR), KD and KD ratio to KRAS
In short: (§1)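 Running buffer contained 10 µM GDP and 10 mM MgCl2 to keep RAS in the GDP state, with 4% DMSO at pH 7.4. Compounds were flowed at 100 µL/min in 75 s steps of rising concentration over captured biotin-Avi RAS at 30°C. Sensorgrams were fitted 1:1 for KD.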

[2] = test system: human lung cancer strain NCI-H441; format: cell-based
In short: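 Step one: dispense the test compound in serial DMSO dilutions. Step three: add the reagent and measure […].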

HRAS wild-type protein = HRAS wild-type protein (Homo sapiens, UniProt P01112); assay: Binding to HRAS by surface plasmon resonance (SPR), KD and KD ratio to KRAS
In short: as §1

[3] = ratio of KD for GDP-bound NRAS wild-type protein to KD for KRAS
[4] = ratio of KD for HRAS wild-type protein to KD for KRAS
[5] = ratio of the KD value with respect to GDP-bound NRAS wild-type protein to the KD value with respect to KRAS
[6] = ratio of the KD value with respect to HRAS wild-type protein to the KD value with respect to KRAS
[7] = ratio of KD value for GDP-bound NRAS wild-type protein to KD value for KRAS (SPR)
[8] = ratio of KD value for HRAS wild-type protein to KD value for KRAS (SPR)

HRAS wild-type protein, sequence (P01112 whole entry): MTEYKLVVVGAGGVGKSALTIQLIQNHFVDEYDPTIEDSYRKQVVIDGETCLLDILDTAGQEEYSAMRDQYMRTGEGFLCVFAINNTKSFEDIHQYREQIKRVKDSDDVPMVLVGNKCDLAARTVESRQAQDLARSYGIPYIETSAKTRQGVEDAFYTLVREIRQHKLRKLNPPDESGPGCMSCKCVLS
GDP-bound NRAS wild-type protein, sequence (P01111 whole entry): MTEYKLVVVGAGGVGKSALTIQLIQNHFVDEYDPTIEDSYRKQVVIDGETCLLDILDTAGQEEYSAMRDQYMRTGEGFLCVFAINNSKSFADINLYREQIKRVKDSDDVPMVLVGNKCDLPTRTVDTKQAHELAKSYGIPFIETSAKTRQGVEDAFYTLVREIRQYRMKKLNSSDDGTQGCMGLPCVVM

Row | Structure (SMILES) | IC50 [2] | NRAS /KRAS [1, 3] | HRAS /KRAS (HRAS wild-type protein; [4]) | further results
1 | CCO[C@@H]1C[C@H]2C(=O)NC3(CC(C)(C)C3)C(=O)N(C)[C@@H](C(CC)CC)C(=O)N(C)[C@H](C(=O)N(C)C)CC(=O)N(C)[C@@H](C(C)C)C(=O)N[C@@H]([C@@H](C)CC)C(=O)N(C)CC(=O)N(C)[C@H]3C/C=C\CCN(C3=O)[C@@H](Cc3ccc(C)cc3)C(=O)N(C)CC(=O)N[C@@H](CCc3ccc(Cl)c(Cl)c3)C(=O)N2C1 [PP2122] | 107 nM | – | – | NRAS /KRAS [1, 5]: AA (a compound having 20 or more is denoted as AA); HRAS /KRAS (HRAS wild-type protein; [6]): A (a compound having 10 or more and less than 20 is denoted as A)
2 | CCCO[C@@H]1CCN2C(=O)[C@H](CCc3cc(F)c(C(F)(F)F)c(F)c3)NC(=O)CN(C)C(=O)[C@H](Cc3ccc(C(F)(F)F)cc3)N3CCCC[C@@H](C3=O)N(C)C(=O)CN(C)C(=O)[C@H]([C@@H](C)CC)NC(=O)[C@H](CC(C)C)N(C)C(=O)C[C@@H](C(=O)N3CCOCC3)N(C)C(=O)[C@H](C3CCCC3)N(C)C(=O)C3(CCC3)NC(=O)[C@H]12 [PP1080] | 39.2 nM | B (a compound having 3 or more and less than 10 is denoted as B) | B (a compound having 3 or more and less than 10 is denoted as B) | –
3 | CCO[C@@H]1C[C@H]2C(=O)NC3(CC(C)(C)C3)C(=O)N(C)[C@@H](C(CC)CC)C(=O)N3CCC[C@@H]3CC(=O)N(C)[C@@H](CC)C(=O)N[C@@H]([C@@H](C)CC)C(=O)N(C)CC(=O)N(C)[C@H]3C/C=C\CCN(C3=O)[C@@H](Cc3ccc(C(F)(F)F)cc3)C(=O)N(C)CC(=O)N[C@@H](CCc3cc(F)c(C(F)(F)F)c(F)c3)C(=O)N2C1 [PP1605] | 31.6 nM | – | – | NRAS /KRAS [1, 7]: A (a compound having 10 or more and less than 20 is denoted as A); HRAS /KRAS (HRAS wild-type protein; [8]): A (a compound having 10 or more and less than 20 is denoted as A)
4 | CC[C@H](C)[C@@H]1NC(=O)[C@H](CC)N(C)C(=O)C[C@@H](C(=O)N(C)C)N(C)C(=O)[C@H](C2CCCC2)N(C)C(=O)C2(CCC2)NC(=O)[C@@H]2C[C@H](OC)CN2C(=O)[C@H](CCc2cc(F)c(C(F)(F)F)c(F)c2)NC(=O)CN(C)C(=O)[C@H](Cc2ccc(C(F)(F)F)cc2)N2CC/C=C\C[C@@H](C2=O)N(C)C(=O)CN(C)C1=O [PP1128] | 121 nM | AA (a compound having 20 or more is denoted as AA) | A (a compound having 10 or more and less than 20 is denoted as A) | –
5 | CCO[C@@H]1C[C@H]2C(=O)NC3(CCC3)C(=O)N(C)[C@@H](C3CCCC3)C(=O)N(C)[C@H](C3CCC3)CC(=O)N(C)[C@@H](CC3CC3)C(=O)N[C@@H]([C@@H](C)CC)C(=O)N(C)CC(=O)N(C)[C@H]3C/C=C\CCN(C3=O)[C@@H](Cc3ccc(C(F)(F)F)cc3)C(=O)N(C)CC(=O)N[C@@H](CCc3cc(F)c(C(F)(F)F)c(F)c3)C(=O)N2C1 [PP1637] | 32.5 nM | – | – | NRAS /KRAS [1, 7]: A (a compound having 10 or more and less than 20 is denoted as A); HRAS /KRAS (HRAS wild-type protein; [8]): A (a compound having 10 or more and less than 20 is denoted as A)
6 | CCCN1C(=O)[C@@H]2CCN2C(=O)[C@H](C)N(C)C(=O)[C@H]([C@@H](C)CC)NC(=O)[C@H](CC(C)C)N(C)C(=O)C[C@@H](C(=O)N2CCC(C)(C)C2)N(C)C(=O)[C@H](C2CCCC2)N(C)C(=O)C2(CCCC2)NC(=O)[C@@H]2CCCN2C(=O)[C@H](CCc2ccc(C(F)(F)F)c(Cl)c2)NC(=O)CN(C)C(=O)[C@@H]1Cc1ccc(C(F)(F)F)cc1 [PP0186] ([NMeL]I[NMeA][Aze][NPrPhe(4-CF3)][Sar][hPhe(3-Cl-4-CF3)]P[Ac5c][NMeGly(cPent)][NMeD]-X11; lactam N-11) | 20.5 nM | C (A compound having a KD ratio of 0.1 or more and less than 3 is denoted as C) | B (a compound having 3 or more and less than 10 is denoted as B) | –
7 | CCCN1C(=O)CN(C)C(=O)CN(C)C(=O)[C@H]([C@@H](C)CC)NC(=O)[C@H](CC(C)C)N(C)C(=O)C[C@@H](C(=O)N2CCOCC2)N(C)C(=O)[C@H](C2CCCC2)N(C)C(=O)C2(CC2)NC(=O)[C@@H]2CCCN2C(=O)[C@H](CCc2ccc(C(F)(F)F)c(Cl)c2)NC(=O)CN(C)C(=O)[C@@H]1Cc1ccc(C(F)(F)F)cc1 [PP0229] ([NMeL]I[Sar][Sar][NPrPhe(4-CF3)][Sar][hPhe(3-Cl-4-CF3)]P[Ac3c][NMeGly(cPent)][NMeD]-Morpholide; lactam N-11) | 24.7 nM | B (a compound having 3 or more and less than 10 is denoted as B) | B (a compound having 3 or more and less than 10 is denoted as B) | –

Stronger by IC50 [2], values ahead:

Row | IC50 [2] | Structure (SMILES) | NRAS /KRAS [1, 3] | HRAS /KRAS (HRAS wild-type protein; [4]) | further results
8 | 7 nM | CC[C@H](C)[C@@H]1NC(=O)[C@H](CC(C)C)N(C)C(=O)C[C@@H](C(=O)N2CCOCC2)N(C)C(=O)[C@H](C2CCCC2)N(C)C(=O)C2(CCCC2)NC(=O)[C@@H]2CCCN2C(=O)[C@H](CCc2ccc(C(F)(F)F)c(Cl)c2)NC(=O)CN(C)C(=O)[C@H](Cc2ccc(C)cc2)N(C)C(=O)CN(C)C(=O)CN(C)C1=O [PP0018] ([NMeL]I[Sar][Sar][NMePhe(4-Me)][Sar][hPhe(3-Cl-4-CF3)]P[Ac5c][NMeGly(cPent)][NMeD]-Morpholide; lactam N-11) | C (A compound having a KD ratio of 0.1 or more and less than 3 is denoted as C) | C (A compound having a KD ratio of 0.1 or more and less than 3 is denoted as C) | –
9 | 11.5 nM | CCO[C@@H]1C[C@H]2C(=O)NC3(CCC3)C(=O)N(C)[C@@H](C3CCCC3)C(=O)N(C)[C@H](C(=O)N(C)C)CC(=O)N(C)[C@@H](CC)C(=O)N[C@@H]([C@@H](C)CC)C(=O)N(C)CC(=O)N(C)[C@H]3CCCCN(C3=O)[C@@H](Cc3ccc(C(F)(F)F)cc3)C(=O)N(C)CC(=O)N[C@@H](CCc3ccc(C(F)(F)F)cc3F)C(=O)N2C1 [PP0885] | C (A compound having a KD ratio of 0.1 or more and less than 3 is denoted as C) | B (a compound having 3 or more and less than 10 is denoted as B) | –
10 | 14.5 nM | CCC[C@H]1C(=O)N[C@@H]([C@@H](C)CC)C(=O)N(C)CC(=O)N(C)[C@H]2C/C=C\CCN(C2=O)[C@@H](Cc2ccc(C(F)(F)F)cc2)C(=O)N(C)CC(=O)N[C@@H](CCc2ccc3sc(C)c(C)c3c2)C(=O)N2C[C@H](OCC)C[C@H]2C(=O)NC2(CC(C)(C)C2)C(=O)N(C)[C@@H](C(CC)CC)C(=O)N(C)[C@H](C(=O)N(C)C)CC(=O)N1C [PP2900] | AA (a compound having 20 or more is denoted as AA) | A (a compound having 10 or more and less than 20 is denoted as A) | –
11 | 12.4 nM | CCO[C@@H]1C[C@H]2C(=O)NC3(CC(C)(C)C3)C(=O)N(C)[C@@H](C3CCCC3)C(=O)N(C)[C@H](C(=O)N(C)CC)CC(=O)N(C)[C@@H](CC)C(=O)N[C@@H]([C@@H](C)CC)C(=O)N(C)CC(=O)N(C)[C@H]3C/C=C\CCN(C3=O)[C@@H](Cc3ccc(C)cc3)C(=O)N(C)CC(=O)N[C@@H](CCc3ccc(C(F)(F)F)c(OC)c3)C(=O)N2C1 [PP1872] | – | – | NRAS /KRAS [1, 7]: A (a compound having 10 or more and less than 20 is denoted as A); HRAS /KRAS (HRAS wild-type protein; [8]): A (a compound having 10 or more and less than 20 is denoted as A)
12 | 4.5 nM | CCCN(C)C(=O)[C@@H]1CC(=O)N(C)[C@@H](CC(F)F)C(=O)N[C@@H]([C@@H](C)CC)C(=O)N(C)CC(=O)N(C)[C@H]2C/C=C\CCN(C2=O)[C@@H](Cc2ccc(C(F)(F)F)cc2)C(=O)N(C)CC(=O)N[C@@H](CCc2cc(F)c(C(F)(F)F)c(F)c2)C(=O)N2C[C@H](OCC)C[C@H]2C(=O)NC2(CC(C)(C)C2)C(=O)N(C)[C@@H](C2CCCC2)C(=O)N1C [PP2030] | – | – | NRAS /KRAS [1, 5]: A (a compound having 10 or more and less than 20 is denoted as A); HRAS /KRAS (HRAS wild-type protein; [6]): A (a compound having 10 or more and less than 20 is denoted as A)
13 | 13.9 nM | CCO[C@@H]1C[C@H]2C(=O)NC3(CCC3)C(=O)N(C)[C@@H](C3CCCC3)C(=O)N(C)[C@H](C(=O)N(C)CCOC)CC(=O)N(C)[C@@H](CC)C(=O)N[C@@H]([C@@H](C)CC)C(=O)N(C)CC(=O)N(C)[C@H]3C/C=C\CCN(C3=O)[C@@H](Cc3ccc(C(F)(F)F)cc3)C(=O)N(C)CC(=O)N[C@@H](CCc3ccc(C(F)(F)F)c(OC)c3)C(=O)N2C1 [PP1321] | – | – | NRAS /KRAS ([1]; ratio of KD with respect to GDP-bound NRAS wild-type protein to KD with respect to KRAS): A (a compound having 10 or more and less than 20 is denoted as A); HRAS /KRAS (HRAS wild-type protein; ratio of KD with respect to HRAS wild-type protein to KD with respect to KRAS): B (a compound having 3 or more and less than 10 is denoted as B)
14 | 4.1 nM | C#CCN1CC(=O)N(C)[C@H]2C/C=C\CCN(C2=O)[C@@H](Cc2ccc(C)cc2)C(=O)N(C)CC(=O)N[C@@H](CCc2cc(F)c(C(F)(F)F)c(F)c2)C(=O)N2C[C@H](OCC)C[C@H]2C(=O)NC2(CC(C)(C)C2)C(=O)N(C)[C@@H](C2CCCC2)C(=O)N(C)[C@H](C(=O)N(C)C)CC(=O)N(C)[C@@H](CC(C)C)C(=O)N[C@@H]([C@@H](C)CC)C1=O [PP2052] | – | – | NRAS /KRAS [1, 5]: A (a compound having 10 or more and less than 20 is denoted as A); HRAS /KRAS (HRAS wild-type protein; [6]): A (a compound having 10 or more and less than 20 is denoted as A)
15 | 16.5 nM | CCO[C@@H]1C[C@H]2C(=O)NC3(CCC3)C(=O)N(C)[C@@H](C3CCCC3)C(=O)N(C)[C@H](C(=O)N(C)C)CC(=O)N(C)[C@@H](CC(C)(C)C)C(=O)N[C@@H]([C@@H](C)CC)C(=O)N(C)CC(=O)N(C)[C@H]3C/C=C\CCN(C3=O)[C@@H](Cc3ccc(C(F)(F)F)cc3)C(=O)N(C)CC(=O)N[C@@H](CCc3cc(F)c(C(F)(F)F)c(F)c3)C(=O)N2C1 [PP1117] | A (a compound having 10 or more and less than 20 is denoted as A) | A (a compound having 10 or more and less than 20 is denoted as A) | –
